Measured values as given in patent US9452985B2, “Tau imaging probe” (GE Healthcare Limited, priority 2010, dated 2016).
Where a name gives a salt, the structure may show the parent alone.

Tested on: neurofibrillary tangles
Assay: Staining test on brain section of Alzheimer's disease patients
Format: binding, human
Conditions: 100 μM solution in 50% ethanol, 10 minutes, fluorescence microscope
From the text: The procedure of staining test on the compounds of the present invention on the brain section of Alzheimer's disease patients is described below:
(1) We used the brain specimens of the temporal lobe or hippocampus from patients who were definitely diagnosed as having Alzheimer's disease pathology. The specimens were obtained from Choju Medical Institute, Fukushimura Hospital, our collaborating research institute, and the consent for use for research purposes was obtained from the patients' bereaved family (Fukushimura Hospital, Ethics Committee Approval No. 20).
(2) The paraffin-embedded brain tissue was sliced to 6 or 8 μm thickness, extended on a slide glass, and dried. The paraffinized brain section was deparaffinized by washing with xylene for 10 minutes×2, 100% ethanol for 5 minutes×2, 90% ethanol for 5 minutes, and running water for 10 minutes in this order.
(3) As a pretreatment for staining with the compounds of the present invention, the treatment to remove autofluorescence with lipofuscin was performed. First, the paraffinized brain section was immersed in 0.25% KMnO4 solution for 20 minutes. It was washed with PBS for 2 minutes twice, immersed in a 0.1% K2S2O5/oxalic acid solution for approximately 5 minutes, and further washed with PBS for 2 minutes 3 times.
(4) From 100 μM solution of the compounds of the present invention dissolved in 50% ethanol, approximately 150 μl was dropped on the section to react for 10 minutes. After being immersed in tap water 5 times, it was mounted with Flour Save Reagent (Calbiochem) and examined with a fluorescence microscope (Nikon, ECLIPSE 80i). The images were taken with a digital camera (Nikon, Dxin1200F or Photometrics, Cool SNAP ES).

SMILES	binding to neurofibrillary tangles in the brain section of Alzheimer's disease patients (staining test)
Nc1ccc(-c2ccc3ccc(OC(CO)CF)cc3n2)cn1 (stereo not drawn) [THK-932, 2-(2-aminopyrid-5-yl)-7-(1-fluoromethyl-2-hydroxyethoxy)quinoline]	bind to neurofibrillary tangles specifically and selectively
CCN(CC)c1ccc(-c2ccc3cc(OC(CO)CF)ccc3n2)cc1 (stereo not drawn) [THK-5035, 2-(4-diethylaminophenyl)-6-(1-fluoromethyl-2-hydroxy)quinoline]	bind to neurofibrillary tangles specifically and selectively
CCN(CC)c1ccc(-c2ccc3ccc(OCC(O)CF)cc3n2)cc1 (stereo not drawn) [THK-5038, 2-(4-diethylaminophenyl)-7-(2-fluoromethyl-2-hydroxyethoxy)quinoline]	bind to neurofibrillary tangles specifically and selectively
CCN(CC)c1ccc(-c2ccc3ccc(OC(CO)CF)cc3n2)cc1 (stereo not drawn) [THK-5058, 2-(4-diethylaminophenyl)-7-(1-fluoromethyl-2-hydroxyethoxy)quinoline]	bind to neurofibrillary tangles specifically and selectively
CCN(CC)c1ccc(-c2cc(OCC(O)CF)c3ccccc3n2)cc1 (stereo not drawn) [THK-5059, 2-(4-diethylaminophenyl)-4-(3-fluoro-2-hydroxypropoxy)quinoline]	bind to neurofibrillary tangles specifically and selectively
CCN(CC)c1ccc(-c2ccc3c(OC(CO)CF)cccc3n2)cc1 (stereo not drawn) [THK-5064, 2-(4-diethylaminophenyl)-5-(1-fluoromethyl-2-hydroxyethoxy)quinoline]	bind to neurofibrillary tangles specifically and selectively
CCN(CC)c1ccc(-c2nc3ccccc3cc2OC(CO)CF)cc1 (stereo not drawn) [THK-5065, 2-(4-diethylaminophenyl)-3-(1-fluoromethyl-2-hydroxyethoxy)quinoline]	bind to neurofibrillary tangles specifically and selectively
CCN(CC)c1ccc(-c2ccc3cccc(OCC(O)CF)c3n2)cc1 (stereo not drawn) [THK-5066, 2-(4-diethylaminophenyl)-8-[(3-fluoro-2-hydroxy)propoxy]quinoline]	bind to neurofibrillary tangles specifically and selectively
CN(C)c1ccc(-c2ccc3ccc(OC(CO)CF)cc3n2)cc1 (stereo not drawn) [THK-5071, 2-(4-fluoromethyl-2-hydroxyethoxy)-2-(4-dimethylaminophenyl)quinoline]	bind to neurofibrillary tangles specifically and selectively
Nc1ccc2ccc(-c3ccc(F)cc3)nc2c1 [THK-5075, 7-amino-2-(4-fluorophenyl)quinoline]	bind to neurofibrillary tangles specifically and selectively
CN(C)c1ccc2ccc(-c3ccc(F)cc3)nc2c1 [THK-5076, 2-(4-fluorophenyl)-7-dimethylaminoquinoline]	bind to neurofibrillary tangles specifically and selectively
CNc1ccc(-c2ccc3ccc(OC(CO)CF)cc3n2)cc1 (stereo not drawn) [THK-5077, 7-(1-fluoromethyl-2-hydroxyethoxy)-2-(4-methylaminophenyl)quinoline]	bind to neurofibrillary tangles specifically and selectively
Nc1cccc2nc(-c3ccc(F)cc3)ccc12 [THK-5079, 5-amino-2-(4-fluorophenyl)quinoline]	bind to neurofibrillary tangles specifically and selectively
CN(C)c1cccc2nc(-c3ccc(F)cc3)ccc12 [THK-5080, 2-(4-fluorophenyl)-5-dimethylaminoquinoline oxalate]	bind to neurofibrillary tangles specifically and selectively
Nc1cccc2ccc(-c3ccc(F)cc3)nc12 [THK-5081, 8-amino-2-(4-fluorophenyl)quinoline]	bind to neurofibrillary tangles specifically and selectively
CN(C)c1cccc2ccc(-c3ccc(F)cc3)nc12 [THK-5082, 2-(4-fluorophenyl)-8-dimethylaminoquinoline]	bind to neurofibrillary tangles specifically and selectively
Nc1ccc2nc(-c3ccc(F)cc3)ccc2c1 [THK-5086, 6-amino-2-(4-fluorophenyl)quinoline]	bind to neurofibrillary tangles specifically and selectively
CN(C)c1ccc2nc(-c3ccc(F)cc3)ccc2c1 [THK-5087, 2-(4-fluorophenyl)-6-dimethylaminoquinoline]	bind to neurofibrillary tangles specifically and selectively
CCN(CC)c1ccc2nc(-c3ccc(F)nc3)ccc2c1 [THK-5088, 6-diethylamino-2-(2-fluoropyrid-5-yl)quinoline]	bind to neurofibrillary tangles specifically and selectively
CCNc1cccc2nc(-c3ccc(F)nc3)ccc12 [THK-5091, 5-ethylamino-2-(2-fluoropyrid-5-yl)quinoline]	bind to neurofibrillary tangles specifically and selectively
CCN(CC)c1cccc2nc(-c3ccc(F)nc3)ccc12 [THK-5092, 5-diethylamino-2-(2-fluoropyrid-5-yl)quinoline]	bind to neurofibrillary tangles specifically and selectively
CCN(CC)c1ccc2ccc(-c3ccc(F)nc3)nc2c1 [THK-5097, 7-diethylamino-2-(2-fluoropyrid-5-yl)quinoline]	bind to neurofibrillary tangles specifically and selectively
CNc1ccc(-c2ccc3ccc(OCC(O)CF)cc3n2)cc1 (stereo not drawn) [THK-5106, 7-[(3-fluoro-2-hydroxy)propoxy]-2-(4-methylaminophenyl)quinoline]	bind to neurofibrillary tangles specifically and selectively
CN(C)c1ccc(-c2ccc3ccc(OCC(O)CF)cc3n2)cc1 (stereo not drawn) [THK-5107, 7-[(3-fluoro-2-hydroxy)propoxy]-2-(4-dimethylaminophenyl)quinoline]	bind to neurofibrillary tangles specifically and selectively
CCN(C)c1ccc(-c2ccc3ccc(OCC(O)CF)cc3n2)cc1 (stereo not drawn) [THK-5112, 2-(4-ethylmethylaminophenyl)-7-[(3-fluoro-2-hydroxy)propoxy]quinoline]	bind to neurofibrillary tangles specifically and selectively
CN(C)c1ccc2nc(-c3ccc(N)c(F)c3)ccc2c1 [THK-5128, 2-(4-amino-3-fluorophenyl)-6-dimethylaminoquinoline]	bind to neurofibrillary tangles specifically and selectively
CN1CCOc2cc(-c3ccc4cc(OCC(O)CF)ccc4n3)cnc21 (stereo not drawn) [THK-5136, 6-[(3-fluoro-2-hydroxy)propoxy]-2-(4-methyl-3,4-dihydro-2H-pyrido[3,2-b][1,4]oxazin-7-yl)quinoline]	bind to neurofibrillary tangles specifically and selectively
